Laboratory results from PubChem BioAssay AID686920 (Broad Institute, 2013).

These compounds were tested on A673 NR0B1-luciferase reporter, viability-normalised luminescence (assay: suppressors of NR0B1-promoter luciferase reporter, dose response, EWS/Fli inhibitor project, luciferase luminescence, A673 cells, cherry-pick (AID 686920)).

Q: Which AC35 does the source give for O=C1NC(=O)N(CCc2ccc(F)cc2)C(=O)/C1=C/C=C/c1ccccc1 here?
A: 2.66 µM

Q: How did the AC35 turn out when C[C@@H]1CN([C@@H](C)CO)C(=O)c2cc(NS(=O)(=O)c3ccc(Cl)cc3)ccc2O[C@@H]1CN(C)Cc1ccc(C(=O)Nc2ccccc2N)cc1 was run?
A: 7.36 µM

Q: With C[C@H](CO)N1C[C@H](C)[C@H](CN(C)Cc2ccc(Oc3ccccc3)cc2)Oc2ccc(NC(=O)Cn3cnnn3)cc2CC1=O as the compound, how does the AC35 read?
A: 33.2 µM

Q: CC12CCC(O)CC1CCC1C2CCC2(C)C(C3=CC(=O)OC3)CCC12O (stereo not given) was tested. Which AC35 did it give?
A: 0.391 µM

Q: Which AC35 does the source give for Cc1c(CCOC(=O)CC23CC4CC(CC(C)(C4)C2)C3)sc[n+]1CC(=O)c1ccccc1 here?
A: 16.9 µM

Q: Which AC35 does the source give for O=C(Nc1ccc(Br)cc1)c1ccc(F)c(S(=O)(=O)N2CCN(c3ccccn3)CC2)c1 here?
A: 7.79 µM

Q: How did the AC35 turn out when Cc1ccc(S(=O)(=O)Nc2ccc3c(c2)C(=O)N([C@H](C)CO)C[C@@H](C)[C@@H](CN(C)Cc2ccc(C(=O)Nc4ccccc4N)cc2)O3)cc1 was run?
A: 9.6 µM

Q: For COc1ccc2oc(-c3ccccc3)cc(=O)c2c1, which AC35 is on record?
A: 8.22 µM

Q: C[C@H]1CN([C@@H](C)CO)C(=O)Cc2cc(NC(=O)CCCCCC(=O)Nc3ccccc3N)ccc2O[C@H]1CN(C)Cc1ccc(Cl)c(Cl)c1 was tested. Which AC35 did it give?
A: 4.68 µM

Q: C(=N\Nc1nc2ccccc2[nH]1)/c1ccccn1 was tested. Which AC35 did it give?
A: 5.58 µM

Q: With CCCCCCCCNC(C)C(O)c1ccc(SC(C)C)cc1 (stereo not given) as the compound, how does the AC35 read?
A: 9.79 µM

Q: For Cc1ccsc1C(=O)OCC(=O)c1cc(C)n(C)c1C, which AC35 is on record?
A: 6.2 µM

Q: COc1ccc(OC)c(-c2nnc3n2N=C(c2ccc(OC)c(OC4CCOC4)c2)CS3)c1 (stereo not given) was tested. Which AC35 did it give?
A: 6.56 µM

Q: With Cc1c(Cl)cnc(NC(=O)COC(=O)c2ccc3ncsc3c2)c1Cl as the compound, how does the AC35 read?
A: 7.23 µM

Q: How did the AC35 turn out when C[C@@H]1CN([C@H](C)CO)S(=O)(=O)c2ccc(C#Cc3ccncc3)cc2O[C@@H]1CN(C)C(=O)Nc1ccc2c(c1)OCO2 was run?
A: 24.5 µM

Q: How did the AC35 turn out when C[C@H](CO)N1C[C@H](C)[C@H](CN(C)Cc2ccc(C(=O)Nc3ccccc3N)cc2)Oc2c(cccc2N(C)C)C1=O was run?
A: 12.9 µM

Q: With CCN(CC)c1ccc(C2NC(=O)c3ccccc3N2)cc1 (stereo not given) as the compound, how does the AC35 read?
A: 3.8 µM

Q: How did the AC35 turn out when O=C(NCCc1ccccc1)c1ccccc1NC(=O)C1CCCO1 (stereo not given) was run?
A: 6.89 µM

Q: COC(=O)c1cccc(NC(=O)NC(=O)c2ccccc2Cl)c1 was tested. Which AC35 did it give?
A: 0.215 µM

Q: With C/C(=N\NC(=O)c1n[nH]c2c1CCC2)c1cccs1 as the compound, how does the AC35 read?
A: 1.78 µM

Q: How did the AC35 turn out when O=c1ccc2ccccc2c2ccccc12 was run?
A: 8.15 µM

Q: For C[C@H](CO)N1C[C@H](C)[C@H](CN(C)Cc2ccc(C(F)(F)F)cc2)Oc2c(NS(=O)(=O)c3ccc(Cl)cc3)cccc2C1=O, which AC35 is on record?
A: 43.4 µM

Q: How did the AC35 turn out when O=c1[nH]c(=O)n([C@H]2C[C@H](O)[C@@H](CO)O2)cc1F was run?
A: 2.63 µM

Q: Which AC35 does the source give for COc1ccc(-c2cnc3c(NC=O)cc(-c4ccccc4OC)cn23)cc1OC here?
A: 0.065 µM

Q: For COc1ccc(OC)c(-c2nnc3n2N=C(c2ccc(OC)c(OC4CCCC4)c2)CS3)c1, which AC35 is on record?
A: 12.6 µM

Q: Which AC35 does the source give for CC(C)c1ccc(OCc2cccc(C(=O)N/N=C/c3cccnc3)c2)cc1 here?
A: 1.03 µM

Q: C[C@H]1CN([C@@H](C)CO)C(=O)Cc2cc(NC(=O)CCC(F)(F)F)ccc2O[C@H]1CN(C)Cc1ccc(C(=O)Nc2ccccc2N)cc1 was tested. Which AC35 did it give?
A: 6.66 µM

Q: CC(C)=CCC/C(C)=C/CN1C(=O)N(c2ccc(F)cc2)[C@H]2C[C@@H](c3ccccc3)[C@@H](C)[C@@H](C(=O)N3CCOCC3)C[C@H]21 was tested. Which AC35 did it give?
A: 7.8 µM

Q: How did the AC35 turn out when COc1ccc(NC(=O)N2CCCCN3[C@H](CO)[C@H](c4ccc(C#CCC(C)C)cc4)[C@H]3C2)cc1 was run?
A: 9.98 µM

Q: Cc1ccc(/C=C/C(=O)N2CCN(S(=O)(=O)c3c(C)c(C)cc(C)c3C)CC2)o1 was tested. Which AC35 did it give?
A: 49 µM

Q: For CCN(CC)C(=O)CN1C(=O)C(=O)c2ccccc21, which AC35 is on record?
A: 42 µM

Q: For CCC(C)Cn1c(O)cc2nn(-c3nc4ccccc4s3)c(=O)c-2c1C (stereo not given), which AC35 is on record?
A: 1.57 µM

Q: With CCCCCCCCCCCCCCCCCCNc1ccn(C2OC(COP(=O)(O)OCC3OC(n4cc(F)c(=O)[nH]c4=O)CC3O)C(O)C2O)c(=O)n1 (stereo not given) as the compound, how does the AC35 read?
A: 18.8 µM

Q: Which AC35 does the source give for COc1ccc(S(=O)(=O)N2CC[C@@H]3[C@H](CO)Nc4ccc(-c5ccc(C#N)cc5)cc4[C@@H]32)cc1 here?
A: 4.3 µM

Q: For CCOc1cc(/C=N/Nc2cc(C)nc(-n3nc(C)cc3C)n2)ccc1O, which AC35 is on record?
A: 35.8 µM

Q: COC(=O)C[C@@H]1CC[C@@H]2[C@@H](COc3ccc(NC(=O)Nc4ccc(C#N)cc4)cc3C(=O)N2C)O1 was tested. Which AC35 did it give?
A: 56.2 µM

Q: How did the AC35 turn out when COc1ccc(C2c3cc4c(cc3OC(NNC(N)=O)C2C)OCO4)cc1 (stereo not given) was run?
A: 14 µM

Q: For C[C@@H]1CN([C@H](C)CO)C(=O)c2cc(NC(=O)c3ccccc3)ccc2O[C@@H](C)CCCCO[C@H]1CN(C)C(=O)Nc1cccc2ccccc12, which AC35 is on record?
A: 2.07 µM

Q: COCCCNc1ccn2nc(-c3ccccc3)cc2n1 was tested. Which AC35 did it give?
A: 10.1 µM

Q: C[C@@H]1CN([C@H](C)CO)C(=O)c2cc(C#CCN(C)C)cnc2O[C@H]1CN(C)Cc1ccc(-c2ccccc2)cc1 was tested. Which AC35 did it give?
A: 10.9 µM

Q: Cc1ccc(S(=O)(=O)Nc2ccc3c(c2)C(=O)N([C@@H](C)CO)C[C@H](C)[C@@H](CN(C)Cc2ccc(C(F)(F)F)cc2)OCCCC[C@@H](C)O3)cc1 was tested. Which AC35 did it give?
A: 10.2 µM

Q: How did the AC35 turn out when CC1OC(OC2CC(O)C3(CO)C4C(O)CC5(C)C(C6=CC(=O)OC6)CCC5(O)C4CCC3(O)C2)C(O)C(O)C1O (stereo not given) was run?
A: 0.0738 µM

Q: C[C@]12CC[C@H](O)C[C@H]1CC[C@@H]1[C@@H]2C[C@@H](O)[C@]2(C)[C@@H](C3=CC(=O)OC3)CC[C@]12O was tested. Which AC35 did it give?
A: 1 µM

Q: How did the AC35 turn out when C[C@H]1CN([C@@H](C)CO)S(=O)(=O)c2ccc(C#CC(C)(C)O)cc2O[C@@H]1CN(C)Cc1ccc(-c2ccccc2)cc1 was run?
A: 1.09 µM

Q: For Cc1c(Cc2ccc3c(c2)OCO3)sc(NC(=O)C(C)(C)C)c1C#N, which AC35 is on record?
A: 9.84 µM
